Here are results for five molecules from ChEMBL document CHEMBL1201862, “PubChem BioAssay data set” (2004).

One may read the AC50 as the midpoint of the concentration-response curve, whichever way the signal moves. In general, IC50 refers to the point on the concentration scale where inhibition reaches its midpoint. One may read the EC50 as the concentration needed to bring the measured effect to its halfway point. The term CC50 denotes the concentration at which the toxic effect on the cells reaches its halfway point.

Each structure is given as a SMILES string. Calls of active or inactive are those of the source.

Assay [1] deals with Scavenger receptor class B member 1 (Mus musculus, UniProt Q61009). Briefly: inhibitors of SR-BI mediated HDL lipid uptake, dose response, ldlA[mSR-BI] cells, fluorescence, cherry pick (AID 493194).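 Note: cellular uptake of fluorescent DiI-labeled HDL measured as cell fluorescence.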 The format is functional, cell-based.
The target in assay [2] is T1, Nucleotide-binding oligomerization domain-containing protein 1 (Homo sapiens, UniProt Q9Y239).
T1 sequence (Q9Y239 whole entry): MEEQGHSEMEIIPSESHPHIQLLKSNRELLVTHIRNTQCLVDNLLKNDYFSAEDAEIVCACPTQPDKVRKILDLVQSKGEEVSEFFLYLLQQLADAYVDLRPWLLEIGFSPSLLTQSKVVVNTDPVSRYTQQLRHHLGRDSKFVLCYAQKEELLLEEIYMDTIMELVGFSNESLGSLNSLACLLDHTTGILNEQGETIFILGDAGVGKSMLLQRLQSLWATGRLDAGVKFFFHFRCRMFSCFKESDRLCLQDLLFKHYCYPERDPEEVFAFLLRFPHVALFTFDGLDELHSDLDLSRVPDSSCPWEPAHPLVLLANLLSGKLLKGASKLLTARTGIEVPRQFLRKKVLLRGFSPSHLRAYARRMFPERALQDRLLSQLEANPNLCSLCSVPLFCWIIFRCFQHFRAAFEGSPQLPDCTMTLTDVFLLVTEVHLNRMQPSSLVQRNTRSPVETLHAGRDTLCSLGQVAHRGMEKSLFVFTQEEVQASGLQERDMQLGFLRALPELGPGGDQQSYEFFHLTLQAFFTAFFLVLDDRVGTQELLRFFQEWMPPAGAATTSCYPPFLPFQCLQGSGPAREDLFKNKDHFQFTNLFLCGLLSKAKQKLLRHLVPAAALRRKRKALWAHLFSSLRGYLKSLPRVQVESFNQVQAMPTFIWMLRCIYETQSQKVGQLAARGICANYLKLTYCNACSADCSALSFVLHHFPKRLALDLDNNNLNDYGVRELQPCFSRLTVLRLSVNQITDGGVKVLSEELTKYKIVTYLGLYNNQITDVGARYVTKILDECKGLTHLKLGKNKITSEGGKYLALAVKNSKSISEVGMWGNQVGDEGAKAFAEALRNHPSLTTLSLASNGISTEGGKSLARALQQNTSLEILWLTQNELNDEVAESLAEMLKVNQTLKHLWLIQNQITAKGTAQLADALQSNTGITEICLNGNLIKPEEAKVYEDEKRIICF
Briefly: NOD1 signaling inhibitors, SAR follow-up, revised (AID 2333). Type of assay: functional.

Assay [3] has as its target Nucleotide-binding oligomerization domain-containing protein 2 (Homo sapiens, UniProt Q9HC29). Briefly: PubChem AID 2334. The format is functional.
For a further assay, the target named is Tumor necrosis factor (Homo sapiens, UniProt P01375). Briefly: TNFa-triggered NF-kB activation inhibitors, SAR follow-up, cell-based, revised (AID 2337). Type of assay: functional.
The test system of assay [4] is HEK293. Briefly: cells. The note with it: Homo sapiens.
A further assay addresses Albumin (Bos taurus, UniProt P02769). Briefly: Counterscreen for inhibitors of T-cell receptor (TCR)-CD3 interaction: Fluorescence-based biochemical high throughput dose response assay to identify inhibitors of T-cell receptor (TCR)-CD3 interaction using a TAMRA-labeled BSA probe. The format is functional. Background: Counterscreens check selectivity or assay interference.

Another assay has as its target Caspase-8 (Homo sapiens, UniProt Q14790). Briefly: caspase-8 inhibition counter-screen, dose response, selectivity assay for caspase-6 inhibitor project, biochemical, Z-IETD-R110 fluorescence, cherry-picked samples (AID 743294).
The next assay has as its target T2, Caspase-3 (Homo sapiens, UniProt P42574).
T2 sequence (P42574 whole entry): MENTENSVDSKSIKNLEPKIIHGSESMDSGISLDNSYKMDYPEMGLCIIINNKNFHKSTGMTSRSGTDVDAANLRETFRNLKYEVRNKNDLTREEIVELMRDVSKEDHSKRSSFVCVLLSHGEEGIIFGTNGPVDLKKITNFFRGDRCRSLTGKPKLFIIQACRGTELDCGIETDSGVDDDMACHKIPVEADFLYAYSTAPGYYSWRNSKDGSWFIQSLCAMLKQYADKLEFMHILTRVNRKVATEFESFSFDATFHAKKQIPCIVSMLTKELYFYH
Briefly: caspase-3 enzyme inhibitors, selectivity check, dose response, selectivity assay for caspase-6 allosteric inhibitor project, biochemical, fluorescence, cherry-picked samples (AID 743291).

Assay [5] concerns the target Intestinal-type alkaline phosphatase (Homo sapiens, UniProt P09923). Briefly: Dose Response confirmation of uHTS hits from a small molecule inhibitors of human intestinal alkaline phosphatase via a luminescent assay. [Related pubchem assays (depositor defined):AID2544, AID2574]. The format is functional.
Another assay deals with Caspase-6 (Homo sapiens, UniProt P55212). Briefly: human caspase-6 inhibitors, dose response, biochemical, VEID-R110 fluorescence, cherry-pick (AID 720632).
The next assay addresses Large T antigen (Simian virus 40, UniProt P03070). The format is functional, Betapolyomavirus macacae.
In assay [6] the target is Induced myeloid leukemia cell differentiation protein Mcl-1 (Homo sapiens, UniProt Q07820). Type of assay: functional.
The target in a further assay is Caspase-7 (Homo sapiens, UniProt P55210). Briefly: human caspase-7 inhibitors, dose response, selectivity assay for caspase-6 inhibitor project, biochemical, DEVD-R110 fluorescence, cherry-pick (AID 743295). Type of assay: […].
Assay [7] concerns HEK293. Briefly: inhibitors of LMP1-driven NF-kB reporter, dose response, cell-based, HEK293, luciferase, cherry-pick (AID 588343). Type of assay: functional. The note with it: Homo sapiens.
The test system of assay [8] is HEK293. Briefly: PMA/Ionomycin induced NF-kB luciferase assay in 293- NF-kB-Luc stable cells. [Related pubchem assays: 1299, 1270, 1295, 1375, 1287, 1281, 1293, 1291, 1289, 1280, 465, 1364, 1282, 1372, 1365, 1370, 1367, 1366, 1269, 1373, 1292, 1290, 1302, 1371, 1283, 1271, 1294, 1374, 1368, 1369 ]. The format is functional, cell-based. Conditions: Homo sapiens.
Assay [9] addresses Luciferin 4-monooxygenase (Photinus pyralis, UniProt P08659). Briefly: In vitro luciferase assay using purified luciferase. [Related pubchem assays: 1299, 1270, 1295, 1375, 1287, 1281, 1293, 1291, 1289, 1280, 465, 1364, 1282, 1372, 1365, 1370, 1367, 1366, 1266, 1373, 1292, 1290, 1302, 1371, 1283, 1271, 1294, 1374, 1368, 1369 ].
Assay [10] has as its system HEK293. Briefly: Cytotoxicity assay in HEK293 cells. [Related pubchem assays (depositor defined):AID1266, AID1269, AID1270, AID1271, AID1280, AID1281, AID1282, AID1283, AID1287, AID1289, AID1290, AID1291, AID1292, AID1293, AID1294, AID1295, AID1299, AID1302, AID1364, AID1365, AID1366, AID1367, AID1369, AID1370, AID1371, AID1372, AID1373, AID1374, AID1375, AID1384 …. Type of assay: functional, cell-based. Conditions: Homo sapiens.

Another assay deals with Vero. Briefly: Vero E6 cell cytotoxicity, SAR follow-up, cytotoxicity control for West Nile virus antiviral project, synthesized analogs (AID 2244). Conditions: Chlorocebus sabaeus. The format is functional.

Caspase-7, sequence (P55210 24-198 limits assumed): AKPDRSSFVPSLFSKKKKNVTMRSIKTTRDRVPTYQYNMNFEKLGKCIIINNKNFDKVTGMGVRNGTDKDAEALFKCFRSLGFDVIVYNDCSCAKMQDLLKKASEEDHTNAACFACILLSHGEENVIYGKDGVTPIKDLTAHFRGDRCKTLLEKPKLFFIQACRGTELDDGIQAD
Caspase-7, sequence (P55210 207-303 limits assumed): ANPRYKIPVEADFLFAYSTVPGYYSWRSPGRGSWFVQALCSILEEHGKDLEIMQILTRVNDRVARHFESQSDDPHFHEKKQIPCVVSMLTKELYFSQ
Tumor necrosis factor, sequence (P01375 whole entry): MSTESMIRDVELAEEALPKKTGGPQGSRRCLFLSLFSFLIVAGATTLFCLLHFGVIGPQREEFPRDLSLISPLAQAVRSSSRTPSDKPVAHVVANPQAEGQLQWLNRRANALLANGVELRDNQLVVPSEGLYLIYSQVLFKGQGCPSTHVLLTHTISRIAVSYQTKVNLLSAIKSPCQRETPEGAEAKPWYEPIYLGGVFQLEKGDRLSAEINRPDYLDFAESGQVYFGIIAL
Albumin, sequence (P02769 whole entry): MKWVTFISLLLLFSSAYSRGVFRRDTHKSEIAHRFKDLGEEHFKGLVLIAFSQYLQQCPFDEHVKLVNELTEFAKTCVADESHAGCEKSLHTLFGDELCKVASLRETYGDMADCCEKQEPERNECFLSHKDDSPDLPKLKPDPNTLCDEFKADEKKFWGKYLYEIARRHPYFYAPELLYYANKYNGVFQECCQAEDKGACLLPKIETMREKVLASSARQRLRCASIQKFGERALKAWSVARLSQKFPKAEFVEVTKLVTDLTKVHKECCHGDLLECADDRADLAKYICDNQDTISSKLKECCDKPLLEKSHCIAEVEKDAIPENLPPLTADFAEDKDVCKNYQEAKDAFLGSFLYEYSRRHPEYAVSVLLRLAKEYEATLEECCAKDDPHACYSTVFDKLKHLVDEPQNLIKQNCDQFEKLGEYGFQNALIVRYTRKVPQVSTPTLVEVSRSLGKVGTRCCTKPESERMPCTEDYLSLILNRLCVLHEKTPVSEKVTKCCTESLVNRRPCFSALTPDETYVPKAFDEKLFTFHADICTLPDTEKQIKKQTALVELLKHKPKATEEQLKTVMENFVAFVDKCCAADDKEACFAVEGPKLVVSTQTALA
Induced myeloid leukemia cell differentiation protein Mcl-1, sequence (Q07820 whole entry): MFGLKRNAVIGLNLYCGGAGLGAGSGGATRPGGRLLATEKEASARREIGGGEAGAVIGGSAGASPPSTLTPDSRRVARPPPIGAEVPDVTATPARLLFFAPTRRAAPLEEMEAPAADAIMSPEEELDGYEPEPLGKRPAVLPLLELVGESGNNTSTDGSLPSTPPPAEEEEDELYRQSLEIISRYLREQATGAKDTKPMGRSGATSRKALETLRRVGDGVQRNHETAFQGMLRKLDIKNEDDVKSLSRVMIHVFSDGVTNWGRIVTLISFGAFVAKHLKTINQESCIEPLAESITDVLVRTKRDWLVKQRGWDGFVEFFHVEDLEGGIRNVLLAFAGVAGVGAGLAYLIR
Caspase-6, sequence (P55212 24-179 limits assumed): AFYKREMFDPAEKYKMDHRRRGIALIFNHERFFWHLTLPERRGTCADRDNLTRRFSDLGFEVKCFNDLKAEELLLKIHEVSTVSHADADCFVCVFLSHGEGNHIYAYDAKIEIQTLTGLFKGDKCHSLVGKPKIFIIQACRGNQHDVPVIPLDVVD
Caspase-6, sequence (P55212 194-293 limits assumed): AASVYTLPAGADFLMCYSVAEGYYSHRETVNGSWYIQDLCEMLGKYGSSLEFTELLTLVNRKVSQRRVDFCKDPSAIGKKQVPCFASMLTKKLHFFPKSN
Intestinal-type alkaline phosphatase, sequence (P09923 whole entry): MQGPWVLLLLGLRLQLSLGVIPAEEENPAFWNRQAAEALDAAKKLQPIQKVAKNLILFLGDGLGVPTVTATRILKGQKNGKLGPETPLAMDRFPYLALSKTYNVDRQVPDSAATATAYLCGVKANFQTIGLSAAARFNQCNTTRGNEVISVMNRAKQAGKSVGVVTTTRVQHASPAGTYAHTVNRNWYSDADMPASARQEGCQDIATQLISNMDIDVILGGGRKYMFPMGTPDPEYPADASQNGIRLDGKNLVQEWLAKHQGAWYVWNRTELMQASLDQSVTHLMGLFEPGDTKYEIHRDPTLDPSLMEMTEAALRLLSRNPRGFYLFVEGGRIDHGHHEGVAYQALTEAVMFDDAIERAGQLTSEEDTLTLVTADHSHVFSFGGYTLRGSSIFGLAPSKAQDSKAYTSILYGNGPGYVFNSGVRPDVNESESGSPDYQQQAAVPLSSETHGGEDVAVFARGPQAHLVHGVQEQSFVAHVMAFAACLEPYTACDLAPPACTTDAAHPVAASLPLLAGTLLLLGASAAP
Luciferin 4-monooxygenase, sequence (P08659 whole entry): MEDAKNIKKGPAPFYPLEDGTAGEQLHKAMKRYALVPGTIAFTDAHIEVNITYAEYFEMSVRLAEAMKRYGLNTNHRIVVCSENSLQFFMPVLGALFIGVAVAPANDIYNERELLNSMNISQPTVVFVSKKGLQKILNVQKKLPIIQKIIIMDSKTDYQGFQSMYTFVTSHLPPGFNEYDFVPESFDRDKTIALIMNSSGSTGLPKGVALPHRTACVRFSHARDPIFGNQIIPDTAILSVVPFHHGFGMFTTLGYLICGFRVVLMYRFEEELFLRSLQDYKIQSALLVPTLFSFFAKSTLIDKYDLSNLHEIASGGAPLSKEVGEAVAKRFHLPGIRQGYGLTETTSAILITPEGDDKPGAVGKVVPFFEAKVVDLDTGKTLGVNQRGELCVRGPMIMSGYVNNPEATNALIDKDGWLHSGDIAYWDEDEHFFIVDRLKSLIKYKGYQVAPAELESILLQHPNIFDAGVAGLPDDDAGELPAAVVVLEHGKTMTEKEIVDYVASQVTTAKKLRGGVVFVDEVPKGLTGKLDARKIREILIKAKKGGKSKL
Scavenger receptor class B member 1, sequence (Q61009 whole entry, the tested form may be a part): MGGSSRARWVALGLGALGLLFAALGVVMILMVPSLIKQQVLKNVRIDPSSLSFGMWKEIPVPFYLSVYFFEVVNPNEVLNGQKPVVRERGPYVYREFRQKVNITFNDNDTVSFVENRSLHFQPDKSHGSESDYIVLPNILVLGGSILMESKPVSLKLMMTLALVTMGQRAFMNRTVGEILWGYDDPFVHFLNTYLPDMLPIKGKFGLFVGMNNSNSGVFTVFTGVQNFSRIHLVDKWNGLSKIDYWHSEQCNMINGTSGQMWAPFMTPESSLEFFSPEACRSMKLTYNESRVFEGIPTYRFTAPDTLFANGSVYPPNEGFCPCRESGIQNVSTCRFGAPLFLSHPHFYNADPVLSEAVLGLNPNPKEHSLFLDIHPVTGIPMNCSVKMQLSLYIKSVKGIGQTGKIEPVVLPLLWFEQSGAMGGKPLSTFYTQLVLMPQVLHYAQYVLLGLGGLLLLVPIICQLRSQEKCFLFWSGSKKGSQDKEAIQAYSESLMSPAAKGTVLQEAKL
Large T antigen, sequence (P03070 whole entry): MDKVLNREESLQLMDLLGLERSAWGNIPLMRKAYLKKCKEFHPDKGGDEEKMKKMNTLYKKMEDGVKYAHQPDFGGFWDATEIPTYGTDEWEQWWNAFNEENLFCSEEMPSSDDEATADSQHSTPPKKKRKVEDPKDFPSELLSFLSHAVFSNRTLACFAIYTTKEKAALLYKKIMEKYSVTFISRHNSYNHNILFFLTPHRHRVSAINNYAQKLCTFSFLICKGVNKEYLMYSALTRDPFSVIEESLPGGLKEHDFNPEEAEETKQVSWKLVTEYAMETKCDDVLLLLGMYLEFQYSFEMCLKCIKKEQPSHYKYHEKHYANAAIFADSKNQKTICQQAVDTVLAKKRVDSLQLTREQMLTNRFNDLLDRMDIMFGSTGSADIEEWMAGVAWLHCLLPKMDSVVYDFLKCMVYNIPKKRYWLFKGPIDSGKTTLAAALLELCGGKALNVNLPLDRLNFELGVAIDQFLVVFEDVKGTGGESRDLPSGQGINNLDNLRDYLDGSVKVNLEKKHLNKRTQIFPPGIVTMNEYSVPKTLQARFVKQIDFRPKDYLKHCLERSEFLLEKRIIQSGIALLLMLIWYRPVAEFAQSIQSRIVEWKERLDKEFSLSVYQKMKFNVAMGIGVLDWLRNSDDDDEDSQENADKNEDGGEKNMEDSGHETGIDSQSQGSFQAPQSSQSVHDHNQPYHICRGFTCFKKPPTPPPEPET
Caspase-8, sequence (Q14790 217-374 limits assumed): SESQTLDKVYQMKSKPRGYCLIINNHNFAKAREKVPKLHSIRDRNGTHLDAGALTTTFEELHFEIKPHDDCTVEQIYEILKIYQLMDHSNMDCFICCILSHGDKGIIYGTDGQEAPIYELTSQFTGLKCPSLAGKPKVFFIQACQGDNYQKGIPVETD
Caspase-8, sequence (Q14790 385-479 limits assumed): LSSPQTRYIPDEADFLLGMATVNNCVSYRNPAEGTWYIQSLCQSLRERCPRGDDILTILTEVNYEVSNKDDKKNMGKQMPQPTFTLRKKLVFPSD

In the case of `CN1CCc2ccc(NC(=O)c3ccc(C(F)(F)F)cc3)cc2C1`, in assay [1], the concentration at half-maximal activity (AC50) is 90.7 µM (active).

For `O=C(NC(=S)Nc1sc2c(c1C(=O)O)CCCC2)c1ccccc1`, the half-maximal inhibitory concentration (IC50) in assay [2] was 14.4 µM (active); in [3] it was 17.3 µM (active); on Tumor necrosis factor, 15.5 µM (active); in the assay on HEK293 [4] it was > 20 µM (inactive).

Consider `O=c1oc2ccccc2c2oc3cc(O)c(O)cc3c12`, for which the IC50 on Albumin is > 94.2 µM (inactive); in [5] it was 3.52 µM (active); at Large T antigen, 6.52 µM (active); in assay [6], 6.69 µM (active). In addition, the AC50 at Caspase-8 was > 70 µM (inactive); on Caspase-3, 22.1 µM (active); at Caspase-6, 4.48 µM (active); on Caspase-7, 59.8 µM (active).

In the case of `COc1cc(OC)cc(-c2cc3nc(C)c(CCC(=O)O)c(C)n3n2)c1`, the AC50 with HEK293 [7] was 0.719 µM (active). Besides, the EC50 in the assay with HEK293 [8] is 4.19 µM (not active); in assay [9], > 8 µM (not active); in the assay with HEK293 [10], > 8 µM (inactive).

Turning to `O=C(Nc1nc(-c2ccc(Cl)cc2)cs1)c1ccc(I)cc1`, the 50% cytotoxic concentration (CC50) in the assay with Vero is > 40 µM (active).
